Results taken from ChEMBL document CHEMBL1128587, “Structure-based inhibitors of influenza virus sialidase. A benzoic acid lead with novel interaction” (J Med Chem, 1995).

Columns and labels:
Type in all cases: functional, organism-based
Influenza A virus [1] = test: The compound was tested in vitro for the inhibitory concentration against influenza N2 sialidase from whole virus by MUN assay
Influenza B virus [2] = test: The compound was tested in vitro for the inhibitory concentration against influenza B/Mem/89 sialidase from whole virus by MUN assay
Influenza B virus [3] = test: The compound was tested in vitro for the inhibitory concentration against influenza B/Mem/89 sialidase from whole virus by fetuin assay
Influenza A virus [4] = test: The compound was tested in vitro for the inhibitory concentration against influenza N2 sialidase from whole virus by fetuin assay

SMILES | IC50 (Influenza A virus [1]) [mM] | IC50 (Influenza B virus [2]) [mM] | IC50 (Influenza B virus [3]) [mM] | IC50 (Influenza A virus [4]) [mM]
CC(=O)Nc1ccc(C(=O)O)cc1NC(=O)C(O)CO (stereo not drawn) | 5 | 8 | > 10 | 4
CC(=O)NC1C(O)CC(O)(C(=O)O)OC1[C@H](O)[C@H](O)CO (stereo partly drawn) |  | > 10 |  | 
CC(=O)Nc1ccc(C(=O)O)cc1NC(=O)CCCN | > 10 | > 10 | > 10 | > 10
CC(=O)Nc1c(OC(C)=O)cc(C(=O)O)cc1[N+](=O)[O-] | 5 | 2 | 4 | 3
CC(=O)Nc1ccc(C(=O)O)cc1N | > 10 | > 20 |  | > 10
CC(=O)Nc1ccc(C(=O)O)cc1NC(=O)CO | 4 | 3 | 10 | > 10
CC(=O)Nc1ccc(C(=O)O)cc1OC(C)=O | > 10 | > 10 | 5 | 10
CC(=O)Nc1cc([N+](=O)[O-])c(C(=O)O)c([N+](=O)[O-])c1O | 1 | 1 | 4 | 3
CC(=O)Nc1c(N)cc(C(=O)O)cc1O | > 10 | 10 | > 10 | > 10
CC(=O)N[C@H]1[C@H]([C@H](O)[C@H](O)CO)OC(C(=O)O)=C[C@@H]1O [NEU5AC2EN] | 0.015 | 0.015 | 0.015 | 0.015
CC(=O)Nc1ccc(C(=O)O)cc1[N+](=O)[O-] | 5 | 5 | 5 | 5
CC(=O)Nc1ccc(C(=O)O)cc1O [3-HYDROXY-4-ACETYLAMINOBENZOIC ACID] | > 10 | > 10 | 10 | 10
CC(=O)Nc1c(O)cc(C(=O)O)cc1[N+](=O)[O-] | 0.75 | 0.75 | 1 | 1
